Data reported in ChEMBL document CHEMBL1287646, “Chemometric modeling of free radical scavenging activity of flavone derivatives” (Eur J Med Chem, 2010).

Test system: Radical scavenging activity
Experiment: Antioxidant activity assessed as DPPH radical scavenging activity
Format: functional

COc1cc(O)c(C(=O)Cc2ccc(OC)c(OC)c2)cc1O
ED50: 39 µM

O=c1c(-c2ccccc2)coc2cc(O)c(O)cc12
ED50: 44 µM

O=C(Cc1ccccc1)c1cc(O)c(O)cc1O
ED50: 29 µM

Cc1c(O)cc(C(=O)Cc2ccccc2)c(O)c1C
ED50: 42 µM

COc1ccc(-c2coc3cc(O)c(OC)cc3c2=O)cc1
ED50: 663 µM

COc1cc(CC(=O)c2cc(O)c(OC)cc2O)ccc1O
ED50: 26 µM

Oc1ccc(C2COc3cc(O)cc(O)c3C2)cc1 (stereo not given)
ED50: 32 µM

COc1cc2c(cc1O)CC(c1ccccc1)CO2 (stereo not given)
ED50: 49 µM

COc1ccc2c(c1O)OCC(c1ccccc1)C2 (stereo not given)
ED50: 168 µM

COc1cc(-c2coc3cc(OC)c(OC)cc3c2=O)ccc1O
ED50: 722 µM

COc1ccc(CC(=O)c2cc(O)c(C)cc2O)cc1
ED50: 23 µM

COc1cc(O)c(C(=O)Cc2ccccc2)cc1O
ED50: 51 µM

Cc1cc(O)c(C(=O)Cc2ccc(O)c(O)c2)cc1O
ED50: 20 µM

Cc1c(O)cc(C(=O)Cc2ccc(O)c(O)c2)c(O)c1C
ED50: 18 µM

COc1ccc(CC(=O)c2cc(O)c(OC)cc2O)cc1
ED50: 31 µM

Cc1c(O)cc2c(=O)c(-c3ccc(O)c(O)c3)coc2c1C
ED50: 85 µM

COc1cc(O)c(C(=O)C(C)c2ccc(O)cc2)cc1O (stereo not given)
ED50: 45 µM

O=C(Cc1ccc(O)c(O)c1)c1ccc(O)c(O)c1O
ED50: 12 µM

COc1ccc2c(=O)c(-c3ccc(O)c(O)c3)coc2c1O
ED50: 53 µM

COc1ccc(-c2coc3c(O)c(O)ccc3c2=O)cc1
ED50: 51 µM

COc1cc(-c2coc3cc(OC)c(O)cc3c2=O)ccc1O
ED50: 404 µM

COc1cc2c(cc1O)OCC(c1ccccc1)C2 (stereo not given)
ED50: 29 µM

COc1cc(-c2coc3cc(O)c(OC)cc3c2=O)ccc1O
ED50: 655 µM

COc1cc(O)c(C(=O)Cc2ccc(O)c(O)c2)cc1O
ED50: 19 µM

COc1ccc(C2COc3cc(O)cc(O)c3C2)cc1 (stereo not given)
ED50: 26 µM

COc1cc2c(cc1O)OCC(c1ccc(O)cc1)C2 (stereo not given)
ED50: 26 µM

COc1cc(CC(=O)c2ccc(OC)c(O)c2O)ccc1O
ED50: 28 µM

COc1cc2c(cc1O)CC(c1ccc(OC)c(OC)c1)CO2 (stereo not given)
ED50: 56 µM

COc1ccc(CC(=O)c2ccc(O)c(O)c2O)cc1OC
ED50: 63 µM

COc1ccc(-c2coc3cc(O)c(O)cc3c2=O)cc1
ED50: 29 µM

COc1cc(CC(=O)c2cc(O)c(C)cc2O)ccc1O
ED50: 22 µM

COc1ccc(CC(=O)c2ccc(O)c(O)c2O)cc1
ED50: 38 µM

COc1ccc(C2COc3c(ccc(C)c3O)C2)cc1 (stereo not given)
ED50: 52 µM

Cc1ccc2c(c1O)OCC(c1ccc(O)cc1)C2 (stereo not given)
ED50: 111 µM

Cc1cc(O)c(C(=O)Cc2ccc(O)cc2)cc1O
ED50: 31 µM

COc1ccc(CC(=O)c2cc(O)c(O)cc2O)cc1
ED50: 32 µM

COc1ccc(C(=O)Cc2ccccc2)c(O)c1O
ED50: 20 µM

CC(C(=O)c1ccc(O)c(O)c1O)c1ccc(O)cc1 (stereo not given)
ED50: 18 µM

O=c1c(-c2ccc(O)cc2)coc2c(O)c(O)ccc12
ED50: 34 µM

O=C(Cc1ccc(O)cc1)c1ccc(O)c(O)c1O
ED50: 22 µM

COc1cc2occ(-c3ccc(O)c(O)c3)c(=O)c2cc1OC
ED50: 46 µM

COc1cc(O)c(C(=O)C(C)c2ccccc2)cc1O (stereo not given)
ED50: 48 µM

COc1ccc(CC(=O)c2cc(O)c(C)c(C)c2O)cc1
ED50: 93 µM

COc1cc(-c2coc3c(O)c(C)ccc3c2=O)ccc1O
ED50: 476 µM

O=c1c(-c2ccccc2)coc2c(O)c(O)ccc12
ED50: 29 µM

Oc1ccc(C2COc3c(ccc(O)c3O)C2)cc1O (stereo not given)
ED50: 22 µM

COc1cc(CC(=O)c2ccc(O)cc2O)ccc1O
ED50: 180 µM

Oc1ccc(C2COc3c(ccc(O)c3O)C2)cc1 (stereo not given)
ED50: 37 µM

COc1ccc(CC(=O)c2ccc(OC)c(O)c2O)cc1
ED50: 44 µM

COc1cc(-c2coc3cc(C)c(O)cc3c2=O)ccc1O
ED50: 232 µM

CC(C(=O)c1ccc(O)c(O)c1O)c1ccccc1 (stereo not given)
ED50: 23 µM

COc1ccc(C2COc3cc(OC)c(O)cc3C2)cc1 (stereo not given)
ED50: 60 µM

COc1cc2c(cc1OC)OCC(c1ccc(O)c(O)c1)C2 (stereo not given)
ED50: 69 µM

COc1cc(-c2coc3cc(O)ccc3c2=O)ccc1O
ED50: 805 µM

O=c1c(-c2ccc(O)c(O)c2)coc2cc(O)ccc12
ED50: 30 µM

Oc1ccc2c(c1O)OCC(c1ccccc1)C2 (stereo not given)
ED50: 37 µM

COc1cc(CC(=O)c2cc(OC)c(OC)cc2O)ccc1O
ED50: 84 µM

Cc1cc(O)c(C(=O)Cc2ccccc2)cc1O
ED50: 43 µM

COc1ccc(C(=O)Cc2ccc(O)c(O)c2)c(O)c1O
ED50: 20 µM

COc1cc(-c2coc3c(O)c(O)ccc3c2=O)ccc1O
ED50: 33 µM

Cc1cc2occ(-c3ccc(O)c(O)c3)c(=O)c2cc1O
ED50: 23 µM

COc1cc2occ(-c3ccc(O)c(O)c3)c(=O)c2cc1O
ED50: 36 µM

O=C(Cc1ccc(O)c(O)c1)c1ccc(O)cc1O
ED50: 20 µM

O=C(Cc1ccccc1)c1ccc(O)c(O)c1O
ED50: 32 µM

COc1cc(CC(=O)c2ccc(O)c(O)c2O)ccc1O
ED50: 25 µM

COc1ccc(C2COc3c(ccc(O)c3O)C2)cc1OC (stereo not given)
ED50: 105 µM

O=C(Cc1ccc(O)cc1)c1cc(O)c(O)cc1O
ED50: 27 µM

COc1ccc(C2COc3c(ccc(O)c3O)C2)cc1 (stereo not given)
ED50: 36 µM

COc1cc(O)c(C(=O)Cc2ccc(O)c(O)c2)cc1OC
ED50: 25 µM

O=c1c(-c2ccc(O)cc2)coc2cc(O)c(O)cc12
ED50: 29 µM

COc1cc2c(cc1O)CC(c1ccc(O)cc1)CO2 (stereo not given)
ED50: 62 µM

COc1ccc(C2COc3cc(C)c(O)cc3C2)cc1 (stereo not given)
ED50: 45 µM

COc1ccc(C2COc3c(ccc(OC)c3O)C2)cc1 (stereo not given)
ED50: 224 µM

COc1ccc2c(=O)c(-c3ccccc3)coc2c1O
ED50: 812 µM

Oc1ccc2c(c1)OCC(c1ccc(O)c(O)c1)C2 (stereo not given)
ED50: 37 µM

O=c1c(-c2ccc(O)c(O)c2)coc2c(O)c(O)ccc12
ED50: 16 µM

COc1cc(O)c(C(=O)Cc2ccc(O)cc2)cc1O
ED50: 38 µM

Cc1ccc2c(c1O)OCC(c1ccccc1)C2 (stereo not given)
ED50: 61 µM

COc1cc(-c2coc3c(O)c(OC)ccc3c2=O)ccc1O
ED50: 228 µM

COc1ccc(C2COc3cc(O)c(OC)cc3C2)cc1 (stereo not given)
ED50: 26 µM

Cc1ccc2c(=O)c(-c3ccc(O)c(O)c3)coc2c1O
ED50: 46 µM

COc1ccc(-c2coc3c(O)c(OC)ccc3c2=O)cc1
ED50: 489 µM

Cc1c(O)cc2c(c1C)OCC(c1ccccc1)C2 (stereo not given)
ED50: 81 µM

COc1cc(CC(=O)c2cc(OC)c(O)cc2O)ccc1O
ED50: 129 µM

Cc1c(O)cc(C(=O)Cc2ccc(O)cc2)c(O)c1C
ED50: 33 µM
